Experimental findings from article PMC10578352, “Identification of a Protein Arginine Methyltransferase 7 (PRMT7)/Protein Arginine Methyltransferase 9 (PRMT9) Inhibitor” (Journal of Medicinal Chemistry, 2023) are described below.

In this experiment the test system is SET-domain-containing enzymes. The experiment is described as follows: Selectivity against the panel of SET-domain-containing KMTs. The note with it: highest tested concentration 100 μM. It counts as biochemical, human. The procedure:
. […] After incubation for 60 min at 30 °C, the reaction mixture was delivered to filter paper for detection (as assessed by scintillation). […] Data were analyzed using Excel and GraphPad Prism 6.0 software (GraphPad Software Inc., San Diego, CA). Values obtained for each compound are mean ± SD determined for two separate experiments.

Each structure is given as a SMILES string. “Also recorded” adds a separate entry of the source.

`COC(=O)c1cc(O)c2cc(NC(=O)NCCCNC(=N)NC[C@H]3O[C@@H](n4cnc5c(N)ncnc54)[C@H](O)[C@@H]3O)cc(C(F)(F)F)c2c1` [1j, Methyl 6-(3-(3-(3-(((2R,3S,4R,5R)-5-(6-Amino-9H-purin-9-yl)-3,4-dihydroxytetrahydrofuran-2-yl)methyl)guanidino)propyl)ureido)-4-hydroxy-8-(trifluoromethyl)-2-naphthoate]: the “inhibition of SET-domain-containing enzymes (in words)” value is given as “none of the SET-domain-containing enzymes was inhibited; also recorded: not inhibited”.
